The values that follow come from patent publication US20260137634A1, “USE OF STILBENE DERIVATIVE IN PREVENTION AND/OR TREATMENT OF ULCERS” (THEDERMA SHANGHAI CO., LTD., priority 2022, published 2026).

Test [1] concerns DB/DB male mouse diabetic foot ulcer model. The test can be described thus: Efficacy in DB/DB male mouse diabetic foot ulcer model after 10 days of treatment. Type of test: in vivo. As to conditions: DB/DB male mice; for Ulcer healing rate / Ulcer area Day 10: 1 mg/mouse; for Ulcer healing rate: 2 times daily for 10 days, ** p<0.05 vs vehicle; for Ulcer healing rate / Ulcer area Day 10 / Ulcer area Day 0: n = 6; for Ulcer area Day 10: 50 μL applied to ulcer 2 times daily for 10 days; for Ulcer area Day 0: foot ulcer, Day 0 (baseline). The method, then:
Eighteen DB/DB male mice were randomly divided into 3 groups, i.e., a model group (propylene glycol vehicle group), a 2% indigo group (1 mg/mouse), and a 2% tapinarof group (1 mg/mouse).
Foot ulcer modeling: after the mouse was anesthetized, the foot was disinfected; a 4 mm×5 mm rectangular region was marked on the dorsum of the foot; and the skin and fascia were removed within the region.
Administration: on the dorsum of the foot of the mouse, 50 μL of the solution in each group was pipetted by using a pipettor and evenly applied to the ulcer part 2 times daily for 10 consecutive days, and the length and the width of the ulcer were recorded.
Statistical analysis was performed by using one-way ANOVA. As compared to the vehicle group, ** indicates p<0.05.

Test [2] deals with SD male rat oral ulcer model. The experiment in a line: Efficacy in SD male rat oral ulcer model after 7 days of treatment. Type of test: in vivo. As to conditions: SD male rats; for Ulcer healing rate / Ulcer area Day 7: 1 mg/rat; for Ulcer healing rate: 2 times daily for 7 days; for Ulcer healing rate / Ulcer area Day 7 / Ulcer area Day 0: n = 6; for Ulcer area Day 7: 50 μL applied to ulcer 2 times daily for 7 days; for Ulcer area Day 0: glacial acetic acid oral ulcer, Day 0 (baseline). The method, then: Eighteen SD male rats were randomly divided into 3 groups, i.e., a model group (propylene glycol vehicle group), a 2% indigo group (1 mg/rat), and a 2% tapinarof group (1 mg/rat). Oral ulcer modeling: a 1 cm×0.6 cm filter paper (soaked into a 60% glacial acetic acid solution) was placed on the labial mucosa of the alveolar bone beneath the lower incisor in a rat and maintained for 1 min. Administration: after the rats were anesthetized, 50 μL of the solution in each group was pipetted by using a pipettor and evenly applied to the ulcer part 2 times daily for 7 consecutive days. After each group was treated with glacial acetic acid, symptoms such as pseudomembrane covering, central depression, red and swollen edges, significant pain response after stimulation, etc. appeared, and after the administration was completed, various symptoms were relieved.

Structures are written as SMILES.

Take `O=C1/C(=C2\Nc3ccccc3C2=O)Nc2ccccc21` [2% indigo, indigo, reference compound]: in test [1], the Ulcer healing rate is recorded as 26%, the “Ulcer area Day 10” value came to 13.30 mm^2 and the “Ulcer area Day 0” value came to 17.99 mm^2. Moreover, in test [2], the Ulcer healing rate is 52%, the “Ulcer area Day 7” value was determined as 22.09 mm^2 and the “Ulcer area Day 0” value turned out to be 46.33 mm^2.

Regarding `CC(C)c1c(O)cc(/C=C/c2ccccc2)cc1O` [2% tapinarof, tapinarof], in test [1], the Ulcer healing rate is listed as 39%**, the “Ulcer area Day 10” value was found to be 10.93 mm^2 and the “Ulcer area Day 0” value is listed as 18.19 mm^2. In addition, the “effect in mouse diabetic foot ulcer model (in words)” value in test [1] (after 10 days of administration) was “significant inhibitory effect, which was superior to that of the 2% indigo group”. Also, in test [2], the Ulcer healing rate is on record as 58%, the “Ulcer area Day 7” value was 19.70 mm^2 and the “Ulcer area Day 0” value turned out to be 46.90 mm^2. Moreover, the “therapeutic effect in rat oral ulcer model (in words)” value in test [2] (7 days of treatment) was “good therapeutic effect, and its efficacy was superior to that of 2% indigo”.
